Measurements taken from patent US10646529B2, “Methods of obtaining natural products from the comestible fluids and methods of use” (BOARD OF TRUSTEES, RUTGERS, THE STATE UNIVERSITY OF NEW …, priority 2010, dated 2020).

What was measured:
Format in all cases: physicochemical
[1] = Sorption of 6-gingerol to full-fat soybean flour (HPLC-MS peak area); details: 6-gingerol 9 μg/ml in water, full-fat soybean flour 30 g/L, 10 ml, 5 minutes
Experimental: 6-Gingerol (Sigma) was diluted in water to a concentration of 9 μg/ml. Full-fat soybean flour was added to the solution at a concentration of 30 g/L in a volume of 10 ml, mixed for 5 minutes and then centrifuged for 10 minutes at 4000 rpm. The supernatant was removed. Full-fat soybean flour was used as a control. Both the 6-gingerol solution before soybean flour treatment (i.e., plant juice) and that obtained after soybean flour treatment (i.e., plant liquor) were subjected to HPLC-MS; the injection volume for each sample was 10 μl.

[2] = Sorption of quercetin from grape juice by soybean flour (HPLC-MS); details: 5 minutes, n=1; for % Quercetin Sorbed to SF / Concentration of Quercetin in Soybean flour: Concord grape juice 50 mL, soybean flour 30 g/L
Experimental: Soybean flour (30 g/L) was added to 50 mL of Concord grape juice and mixed at room temperature for five minutes. The juice was separated from the flour by centrifugation and then filtered through a 0.22 μm syringe filter. Untreated and soybean flour-treated juice samples (n=1) were processed as described in Example 8 and the quercetin content of untreated and soybean flour-treated samples was determined by HPLC-MS. Quercetin is a polyphenolic flavonoid compound. More specifically, it is a flavonol known in the art to have anti-inflammatory and antioxidant properties, and it is expected to be useful in treating cancer. Quercetin is also known to have endurance-promoting effects.

[3] = Sorption of resveratrol from grape juice by soybean flour (HPLC-MS)
Experimental: Soybean flour (30 g/L) was added to 50 mL of Concord grape juice and mixed at room temperature for five minutes. The juice was separated from the flour by centrifugation and then filtered through a 0.22 μm syringe filter. The resveratrol content of the untreated and flour-treated juice samples (n=1) was quantified by HPLC-MS according to a previously published method (Wang et al., J. Agric. Food Chem., 50:431-435, 2002, the disclosure of which is incorporated herein by reference in its entirety.).
The enriched substance was prepared as follows. Briefly, 2 ml of untreated or soybean flour-treated grape juice sample was mixed with 20 ml of methanol overnight and samples were then centrifuged at 2280 g for 5 minutes and the methanol portion was removed. The solid residue was washed with an additional 10 ml of methanol. Methanol supernatants were combined and evaporated using a rotary evaporator and the methanol-free samples were diluted in 10 ml of water for enzymatic hydrolysis with 30 mg β-D-glucosidase (2.3 units/mg). Each sample was then extracted four times with 7 ml of water-saturated ethyl acetate. Ethyl acetate extracts were combined and evaporated to dryness under vacuum using a rotary evaporator. Residues were dissolved in 1 ml of methanol/0.5% formic acid (7:3; v/v) for LC-MS analysis. Standards of resveratrol were prepared for LC-MS to generate standard curves and quantify the levels of each compound in juice samples.

[4] = Sorption of caffeine from green tea by defatted soybean flour (HPLC-MS); details: green tea after SFDF 30 g/L, n=1
Experimental: The amount of caffeine in the untreated and soybean flour-treated tea samples (n=1) was also tested. […] Caffeine is a psychoactive stimulant that provides health benefits beyond the familiar increase in alertness and energy associated with coffee and tea consumption. The untreated and flour-treated tea samples described above were diluted 10 times in 0.1% acetic acid (1 μL glacial acetic acid and 1 mL water). Samples were subject to HPLC-MS and caffeine was quantified against a caffeine standard curve.

[5] = Sorption of sesquiterpene lactones from chicory root extract to defatted soybean flour (HPLC-MS peak area); details: chicory root water extract 50 ml, defatted soybean flour 100 g/L, 5 minutes
Experimental: Dried chicory root was ground to a powder and 25 g was extracted in 500 ml of water for three hours in a 50° C. water bath with sonication. The water extract was separated from the plant material by filtration. Defatted soybean flour was mixed for 5 minutes with 50 ml of the chicory root extract at a concentration of 100 g/L followed by centrifugation (10 minutes, 15,000 rpm) and filtration of the supernatant. Untreated and soybean flour-treated chicory root extract were subjected to HPLC-MS; the injection volume for each sample was 10 μl. The amounts of the dihydrolactucin, lactucopicrin and dihydrolactucopicrin compounds present in the chicory root extract sorbed to the soybean flour were determined by calculating the percent decrease in peak area before and after treatment of the chicory extract with soybean flour.

[6] = Concord grape juice 50 mL, soybean flour 30 g/L, 5 minutes, n=1

Q: Which “% of 6-gingerol sorbed by soybean flour (percent decrease in peak area)” value [1] does the source give for `CCCCC[C@H](O)CC(=O)CCc1ccc(O)c(OC)c1` [6-gingerol, 6-Gingerol] here?
A: 63%

Q: With `O=c1c(O)c(-c2ccc(O)c(O)c2)oc2cc(O)cc(O)c12` [Quercetin] as the molecule, how does the “Quercetin in Grape Juice” value ([2]; Concord grape juice 50 mL after soybean flour 30 g/L) read?
A: 519 ng/mL

Q: What about the “% Quercetin Sorbed to SF” value [2] of the same molecule?
A: 74%

Q: And the “Concentration of Quercetin in Soybean flour” value [2]?
A: 49.3 µg/g

Q: And the “% Quercetin Sorbed to SF” value ([2]; listed as quercetin)?
A: about 74%

Q: What about the “Concentration of Quercetin in Soybean flour” value ([2]; listed as quercetin) of the same molecule?
A: approximately 49.3 μg/g

Q: Which “Bound resveratrol (amount)” value ([3]; 1.5 g soybean flour in 50 mL grape juice) does the source give for `Oc1ccc(C=Cc2cc(O)cc(O)c2)cc1` [Resveratrol] here?
A: 88.8 mg

Q: What about the “Resveratrol in Grape Juice” value ([3]; Concord grape juice 50 mL after soybean flour 30 g/L, 5 minutes, n=1) of the same molecule?
A: 325 ng/mL

Q: What about the “% Resveratrol Sorbed to SF” value [3, 6] of the same molecule?
A: 85%

Q: What about the “Concentration of Resveratrol in SF” value [3, 6] of the same molecule?
A: 59.2 µg/g

Q: With `Cn1c(=O)c2c(ncn2C)n(C)c1=O` [caffeine] as the molecule, how does the “Caffeine Concentration” value [4] read?
A: 383.1 mg/L

Q: Which “% of compound sorbed by soybean flour from chicory root extract (percent decrease in peak area)” value [5] does the source give for `CC1=C2C(=O)C=C(CO)[C@@H]2[C@H]2OC(=O)[C@@H](C)[C@@H]2[C@H](OC(=O)Cc2ccc(O)cc2)C1` [dihydrolactucopicrin] here?
A: 80%

Q: With lactucopicrin as the molecule, how does the “% of compound sorbed by soybean flour from chicory root extract (percent decrease in peak area)” value [5] read?
A: 100%
